Measured values: the supplement of paper PMC13380429

Experiments:
Conditions in all cases: 72 h
[1] = tested on: Caco-2; assay: cell viability relative to DMSO; higher = less toxic
[2] = tested on: Calu-3; assay: as above
[3] = tested on: HepG2; assay: as above
[4] = tested on: U2OS; assay: as above
[5] = tested on: Vero E6; assay: as above
[6] = tested on: Calu-3; assay: relative viability EC50 (midpoint between 100% and the lowest measured viability); higher = less toxic
[7] = tested on: U2OS; assay: as above
[8] = tested on: Caco-2; assay: drug sensitivity score (DSS) for viability; higher = more toxic; extreme values may be limits of the assay
[9] = tested on: Calu-3; assay: as above
[10] = tested on: HepG2; assay: as above
[11] = tested on: U2OS; assay: as above
[12] = tested on: Vero E6; assay: as above
[13] = tested on: Caco-2; assay: relative viability EC50 (midpoint between 100% and the lowest measured viability); higher = less toxic
[14] = tested on: HepG2; assay: as above

| SMILES | cell viability ([1]; 1 nM) [%] | cell viability ([1]; 10 nM) [%] | cell viability ([1]; 100 nM) [%] | cell viability ([1]; 1000 nM) [%] | cell viability ([1]; 10000 nM) [%] | cell viability ([2]; 1 nM) [%] | cell viability ([2]; 10 nM) [%] | cell viability ([2]; 100 nM) [%] | cell viability ([2]; 1000 nM) [%] | cell viability ([2]; 10000 nM) [%] | cell viability ([3]; 1 nM) [%] | cell viability ([3]; 10 nM) [%] | cell viability ([3]; 100 nM) [%] | cell viability ([3]; 1000 nM) [%] | cell viability ([3]; 10000 nM) [%] | cell viability ([4]; 1 nM) [%] | cell viability ([4]; 10 nM) [%] | cell viability ([4]; 100 nM) [%] | cell viability ([4]; 1000 nM) [%] | cell viability ([4]; 10000 nM) [%] | cell viability ([5]; 1 nM) [%] | cell viability ([5]; 10 nM) [%] | cell viability ([5]; 100 nM) [%] | cell viability ([5]; 1000 nM) [%] | cell viability ([5]; 10000 nM) [%] | relative viability EC50 [6] [µM] | relative viability EC50 [7] [µM] | drug sensitivity score [8] | drug sensitivity score [9] | drug sensitivity score [10] | drug sensitivity score [11] | drug sensitivity score [12] | relative viability EC50 [13] [µM] | relative viability EC50 [14] [µM] |
| --- | --- | --- | --- | --- | --- | --- | --- | --- | --- | --- | --- | --- | --- | --- | --- | --- | --- | --- | --- | --- | --- | --- | --- | --- | --- | --- | --- | --- | --- | --- | --- | --- | --- | --- |
| N#C/C(=C\c1ccc(O)c(O)c1)C(=O)NCCCCc1ccccc1 [AG-556] | 94 | 94.2 | 101 | 101 | 50.1 | 95.7 | 101 | 102 | 110 | 98.7 | 93.3 | 101 | 97.8 | 108 | 71.1 | 98.5 | 99 | 94.7 | 99 | 75.8 | 95.8 | 95.6 | 100 | 95.9 | 62.5 | > 10 | > 10 | 2.5 | 0 | 0.9 | 1 | 2.5 | – | – |
| CC[C@@H](C(N)=O)N1CCCC1=O [levetiracetam] | 96.2 | 91.6 | 100 | 95.2 | 101 | 87.4 | 91.8 | 98.6 | 103 | 103 | 93.2 | 105 | 90 | 104 | 92 | 103 | 98.2 | 101 | 97.2 | 103 | – | – | – | – | – | > 10 | > 10 | 0 | 0 | 0 | 0 | – | > 10 | > 10 |
| O=c1ccc2ccccc2o1 [coumarin] | 96.5 | 97.6 | 99.2 | 95.9 | 95.5 | 97.7 | 90.9 | 95.6 | 105 | 88.6 | 91.8 | 107 | 106 | 96.7 | 111 | 100 | 98.1 | 96.1 | 99.1 | 98.1 | – | – | – | – | – | > 10 | > 10 | 0 | 0 | 0 | 0 | – | > 10 | > 10 |
| CCN1C[C@]2(OC(=O)c3ccccc3NC(C)=O)CC[C@H](OC)[C@@]34[C@@H]2C[C@@H]([C@@H]13)[C@@]1(O)C[C@H](OC)[C@H]2C[C@@H]4[C@]1(O)[C@H]2OC [lappaconite] | 87.7 | 99 | 85.5 | 95.2 | 89.8 | 103 | 86.1 | 94.1 | 102 | 106 | 101 | 97.1 | 103 | 100 | 107 | 103 | 103 | 98.1 | 99.1 | 94.4 | – | – | – | – | – | > 10 | > 10 | 0 | 0 | 0 | 0 | – | > 10 | > 10 |
| O=C(CCCN1CCC(O)(c2ccc(Br)cc2)CC1)c1ccc(F)cc1 [bromperidol] | – | – | – | – | – | – | – | – | – | – | – | – | – | – | – | – | – | – | – | – | – | – | – | – | – | – | – | – | 0 | 0.8 | 0 | 0 | – | – |
| CC(C)(O)c1coc(S(=O)(=O)NC(=O)Nc2c3c(cc4c2CCC4)CCC3)c1 [MCC950] | 106 | 96.1 | 102 | 96.9 | 104 | 120 | 105 | 100 | 103 | 99.3 | 97.9 | 95.9 | 102 | 113 | 105 | 104 | 103 | 105 | 97.7 | 102 | – | – | – | – | – | > 10 | > 10 | 0 | 0 | 0 | 0 | – | > 10 | > 10 |
| O=c1[nH]c(=O)n([C@H]2C[C@H](O)[C@@H](CO)O2)cc1C(F)(F)F [trifluridine] | 93.3 | 93.9 | 98.4 | 94 | 81.7 | 106 | 121 | 103 | 100 | 97.7 | 95.9 | 93.2 | 104 | 64.8 | 36.1 | – | – | – | – | – | 101 | 105 | 108 | 102 | 69.5 | > 10 | – | 0.9 | 0 | 7.8 | – | 1.2 | > 10 | 0.923 |
